Assay in all cases: inhibition of tumour cell growth, NCI panel, 48 h
Assay [1] relates to A498 renal.
For assay [2], the system named is M14 melanoma.
The subject of assay [3] is MOLT-4 leukemia.
Assay [4] relates to NCI-H522 lung.
In assay [5] the test system is ACHN renal.
Assay [6] relates to OVCAR-8 ovarian.
The subject of assay [7] is OVCAR-5 ovarian.
Assay [8] concerns HT29 colon.
Assay [9] deals with UACC-257 melanoma.
The test system of assay [10] is MALME-3M melanoma.

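The compound was tested at five concentrations on cells cultured in 96-well plates, with a 48-hour exposure period. GI50: concentration for 50% inhibition of growth. Definition used: TGI = concentration required for complete inhibition of growth.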

As to `CCCCCCCC(=O)SCC/C=C/[C@@H]1CC(=O)NCc2cccc(n2)C2=N[C@@](C)(CS2)C(=O)N[C@@H](C(C)C)C(=O)O1`, the GI50 in [1] is 0.0202 µM; in assay [2], 0.0348 µM; in [3] it was 0.0702 µM; in [4], 0.0192 µM; in [5] it was 0.0897 µM; in [6] it was 0.0253 µM. Also, the GI50 is 0.0254 µM in assay [7] and 0.0256 µM in [8]. The TGI in assay [1] is 0.111 µM; in [2], above 33.3 µM; in assay [3] it was above 33.3 µM; in assay [4] it was 0.845 µM; in assay [5], 0.693 µM; in assay [6], above 33.3 µM. For the same compound, the TGI in [7] and in assay [8] was above 33.3 µM each time.
For the compound `Nc1ncnc2c1ncn2C1OC(CO)CC1O` (stereo not drawn), the TGI in assay [2] is above 100 µM; in assay [3], above 100 µM; in [9], above 100 µM; in assay [4], 38.7 µM; in [5], above 100 µM; in assay [6] it was 49.6 µM. In assay [7], this compound returned a TGI above 100 µM.
Take `CO[C@H](C(=O)O[C@H]1C(=O)N2CCC3CCC1C32C)c1ccccc1` (stereo partly drawn): the TGI in assay [2], in [3], in assay [9], in assay [4], in assay [10] and in assay [5] was above 100 µM in each case. Further, the TGI in assay [6], in assay [7] and in assay [8] was above 100 µM in each case.
As to `CN(C(=N)c1ccccc1)c1ccccc1`, the TGI in assay [2], in [3], in assay [6] and in assay [8] was above 100 µM in each case.
Take `O=C1/C(=N/N=C(c2ccccc2)c2ccccc2)c2ccccc2-c2ccccc21`: the TGI in [2], in [3], in [9], in [4], in assay [10] and in assay [5] was above 100 µM throughout. Further, the TGI in assay [6], in assay [7] and in [8] was above 100 µM in each case.
`O=C(/C=C/c1ccc[nH]1)c1ccccc1`: the TGI in [2], in assay [3], in assay [9], in assay [4], in [10] and in assay [5] was above 100 µM throughout. The TGI in [6], in assay [7] and in assay [8] was above 100 µM each time.
Turning to `O=C1C2c3[nH]c4ccccc4c3C3CCC(c4ccccc4)CC3C2C(=O)N1c1ccccc1` (stereo not drawn), the TGI in [2], in assay [3], in [10], in assay [5], in assay [6] and in assay [7] was above 100 µM throughout. For the same compound, the TGI in assay [8] is above 100 µM.
For the compound `CN1C(=O)C(C)(C)NS1(=O)=O`, the TGI in assay [1], in assay [2], in assay [3], in assay [9], in [10] and in assay [5] was above 100 µM throughout. Further, the TGI in assay [6], in [7] and in assay [8] was above 100 µM throughout.
For the compound `COc1ccc(-c2cnc(SCC(=O)c3c(C)n(C)n(-c4ccccc4)c3=O)n2-c2ccc(OC)cc2)cc1`, the GI50 was 35.2 µM in [2]; 12.6 µM in [3]; above 50 µM in assay [9]; above 50 µM in [4]; above 50 µM in assay [5]; above 50 µM in [6]. The GI50 in assay [7] and in assay [8] was above 50 µM throughout. Moreover, the TGI in assay [2], in assay [3], in [9], in assay [4], in [5] and in assay [6] was above 50 µM each time. Further, the TGI in assay [7] and in assay [8] was above 50 µM each time.
Consider `CC(C)(C)c1cc(O)c2c(c1O)C(=O)CCC2`, for which the TGI is above 100 µM in assay [1]; above 100 µM in assay [2]; 53.8 µM in [3]; 74.3 µM in [9]; above 100 µM in [5]; above 100 µM in [6]. In assay [8], the TGI was above 100 µM.
Regarding `OCC(O)C(O)C(O)c1nn[nH]n1` (stereo not drawn), the TGI in assay [2], in [3], in [4], in assay [10], in assay [5] and in assay [6] was above 100 µM in each case. Further, the TGI in assay [7] and in assay [8] was above 100 µM throughout.
As for `N=C(N)c1ccc(CS(=O)(=O)F)cc1`, the GI50 in [2], in [3], in [9], in assay [4], in [10] and in [5] was above 100 µM each time. Besides, the GI50 in assay [6], in assay [7] and in assay [8] was above 100 µM throughout. The TGI in assay [2], in [3], in [9], in assay [4], in assay [10] and in assay [5] was above 100 µM in each case. In addition, the TGI in assay [6], in [7] and in assay [8] was above 100 µM throughout.
On to `Cc1c(C)n(CC(O)CNC2CCCCC2C)c2ccccc12` (stereo not drawn), for which the GI50 in assay [1] is 4.99 µM; in assay [3], 15.3 µM; in assay [9], 16.2 µM; in assay [10], 14.2 µM; in [5] it was 13.3 µM; in [6], 16.2 µM. In assay [7], the GI50 was 12.9 µM. Further, the TGI turned out to be 19.6 µM in [1]; 41.2 µM in assay [3]; 31 µM in assay [9]; 30.1 µM in assay [10]; 26 µM in assay [5]; 31.2 µM in assay [6]. Moreover, the TGI in assay [7] came to 25.7 µM.

Source of the values: PubChem BioAssay (NCI).
